Test results as given in patent US20070134261A1, “Effectors of innate immunity” (priority 2001, published 2007).
Values after ≈ are worked out from the molar mass of the structure shown. Read-outs that look alike come from different tables or passages of the source. Residues, ends and D or L forms follow the SMILES beside them. No end group written: not given here.

Columns and labels:
HBE cells = test: WST-1 assay (cell viability); format: cell-based, human
Method: (§1) The potential toxicity of the peptides was measured in two ways. First, the Cytotoxicity Detection Kit (Roche) (Lactate dehydrogenase-LDH) Assay was used. It is a colorimetric assay for the quantification of cell death and cell lysis, based on the measurement of LDH activity released from the cytosol of damaged cells into the supernatant. LDH is a stable cytoplasmic enzyme present in all cells and it is released into the cell culture supernatant upon damage of the plasma membrane. An increase in the amount of dead or plasma membrane-damaged cells results in an increase of the LDH enzyme activity in the culture supernatant as measured with an ELISA plate reader, OD490 nm (the amount of color formed in the assay is proportional to the number of lysed cells). In this assay, human bronchial epithelial cells (I6HBEo14, HBE) cells were incubated with 100 μg of peptide for 24 hours, the supernatant removed and tested for LDH. The other assay used to measure toxicity of the cationic peptides was the WST-1 assay (Roche). This assay is a colorimetric assay for the quantification of cell proliferation and cell viability, based on the cleavage of the tetrazolium salt WST-1 by mitochondrial dehydrogenases in viable cells (a non-radioactive alternative to the [^3H]-thymidine incorporation assay). In this assay, HBE cells were incubated with 100 μg of peptide for 24 hours, and then 10 μl/well Cell Proliferation Reagent WST-1 was added. The cells are incubated with the reagent and the plate is then measured with an ELISA plate reader, OD490 nm.

[1] = system: human bronchial epithelial cells (HBE); test: LDH release assay (Cytotoxicity Detection Kit); format: cell-based; conditions: 24 hours; for LDH Release (OD490 nm): 100 μg/ml, no peptide control 1.0 ± 0.05; for toxicity / membrane damage: as measured by both assays (LDH, WST-1), HBE cells
Method: as §1

[2] = format: cell-based
A549 epithelial cells = test: Human Operon arrays (PRHU04-S1) of A549 cells treated with peptide alone (Tables 31-37, 53); conditions: peptide 50 μg/ml, 4 h, A549 cells; for X58467 cytochrome P450, expression Ratio ID#:ctrl: Table 36
[3] = Citobacter rhodensis, overnight, 96-well plate
[4] = Enterohaemorrhagic E. coli, overnight, 96-well plate
[5] = Escherichia coli, overnight, 96-well plate
[6] = Pseudomonas aeruginosa, overnight, 96-well plate
[7] = Salmonella enteritidis ssp. typhimurium, overnight, 96-well plate
[8] = Staphylococcus aureus, overnight, 96-well plate

| Molecule | OD490 nm (WST-1 cell viability) (HBE cells) [OD490 nm] | LDH Release (OD490 nm) [1] [OD490 nm] | MIC, C. rhod. ([2]; 24 h) [µg/mL] | MIC, E. coli ([2]; 24 h) [µg/mL] | MIC, EHEC ([2]; 24 h) [µg/mL] | MIC, S. typhim. ([2]; 24 h) [µg/mL] | further results |
| --- | --- | --- | --- | --- | --- | --- | --- |
| CC[C@H](C)[C@H](NC(=O)CNC(=O)[C@H](CCCNC(=N)N)NC(=O)[C@H](CCSC)NC(=O)[C@H](CO)NC(=O)[C@@H](NC(=O)[C@H](CCCNC(=N)N)NC(=O)[C@H](CCCNC(=N)N)NC(=O)[C@@H](NC(=O)[C@H](CS)NC(=O)[C@H](Cc1c[nH]cn1)NC(=O)[C@@H](N)CCCNC(=N)N)[C@@H](C)CC)C(C)C)C(=O)N[C@H](C(=O)N[C@@H](CCSC)C(=O)N[C@@H](CCCNC(=N)N)C(=O)N[C@@H](CCCNC(=N)N)C(=O)N[C@@H](CS)C(=O)N[C@@H](CCCCN)C(=O)O)[C@@H](C)CC [SEQ ID NO: 38] (H-RHCIRRVSMRGIIMRRCK-OH) | 1.83 ± 0.03 | 0.95 ± 0.02 | 8 (≈ 3.52 µM) | 0.5 (≈ 0.22 µM) | 4 (≈ 1.76 µM) | 4 (≈ 1.76 µM) | MIC, P. aerug. ([2]; 24 h): 64 µg/mL (≈ 28.2 µM); MIC, S. aureus ([2]; 24 h): 32 µg/mL (≈ 14.1 µM) |
| CC[C@H](C)[C@H](NC(=O)[C@H](CC(C)C)NC(=O)[C@H](C)NC(=O)[C@@H]1CCCN1C(=O)[C@H](CC(C)C)NC(=O)CNC(=O)[C@@H](NC(=O)[C@@H](NC(=O)[C@H](CC(C)C)NC(=O)[C@@H](NC(=O)[C@H](CCCCN)NC(=O)[C@H](CCCCN)NC(=O)[C@H](CC(C)C)NC(=O)[C@H](C)NC(=O)[C@H](CCCCN)NC(=O)[C@H](CCSC)NC(=O)[C@H](CC(C)C)NC(=O)[C@H](CCSC)NC(=O)[C@H](CCCCN)NC(=O)[C@H](CC(C)C)NC(=O)[C@H](Cc1ccccc1)NC(=O)[C@H](CO)NC(=O)[C@H](CCCCN)NC(=O)[C@H](CO)NC(=O)[C@@H](N)CCCCN)C(C)C)[C@@H](C)O)[C@@H](C)O)C(=O)N[C@@H](CO)C(=O)O [SEQ ID NO: 41] | 0.40 ± 0.01 | 3.3 ± 0.2 | – | – | – | – | toxicity / membrane damage [1]: did induce membrane damage; MIC, C. rhod. [2, 3]: 2 µg/mL (≈ 0.702 µM); MIC, EHEC [2, 4]: 2 µg/mL (≈ 0.702 µM); MIC, E. coli [2, 5]: 4 µg/mL (≈ 1.4 µM); MIC, P. aerug. [2, 6]: 8 µg/mL (≈ 2.81 µM); MIC, S. typhim. [2, 7]: 8 µg/mL (≈ 2.81 µM); MIC, S. aureus [2, 8]: 64 µg/mL (≈ 22.5 µM) |
| DLPAKRGSAPGST [ID 12] | – | – | – | – | – | – | ID#:ctrl intensity ratio, M14565 cytochrome P450 (A549 epithelial cells): 10.6 |
| Gentamicin | – | – | – | – | – | – | MIC, C. rhod. [2, 3]: 0.25 µg/mL; MIC, EHEC [2, 4]: 0.5 µg/mL; MIC, E. coli [2, 5]: 0.25 µg/mL; MIC, P. aerug. [2, 6]: 0.25 µg/mL; MIC, S. typhim. [2, 7]: 0.25 µg/mL; MIC, S. aureus [2, 8]: 0.25 µg/mL |
| KCKLFKKMLMLALKKVLTTGLPALKLTK [ID 40] | – | – | – | – | – | – | X58467 cytochrome P450, expression Ratio ID#:ctrl (A549 epithelial cells): 15.4 |
| KCKLFKKMLMLALKKVLTTGLPALKLTK [SEQ ID NO: 40] | 0.46 ± 0.06 | 2.8 ± 0.5 | – | – | – | – | toxicity / membrane damage [1]: did induce membrane damage; MIC, C. rhod. [2, 3]: 4 µg/mL; MIC, EHEC [2, 4]: 2 µg/mL; MIC, E. coli [2, 5]: 4 µg/mL; MIC, P. aerug. [2, 6]: 8 µg/mL; MIC, S. typhim. [2, 7]: 4 µg/mL; MIC, S. aureus [2, 8]: 32 µg/mL |
| KESIKVIIRGMMVRMKK [SEQ ID NO: 35] | 1.00 ± 0.08 | 0.88 ± 0.03 | 8 | 4 | 4 | 8 | MIC, P. aerug. ([2]; 24 h): 64 µg/mL; MIC, S. aureus ([2]; 24 h): 128 µg/mL |
| KKDAIKKVDIRGMDMRRAR [SEQ ID NO: 28] | 1.69 ± 0.03 | 0.96 ± 0.06 | 64 | – | 128 | 64 | – |
| KKQMMKRVDVRGISVKRKR [SEQ ID NO: 34] | 0.96 ± 0.05 | 1.02 ± 0.03 | 64 | 8 | 8 | 32 | – |
| KMKSFAKMLMLALKKVLKVLTTALTLKAGLPS [ID 43] | – | – | – | – | – | – | X58467 cytochrome P450, expression Ratio ID#:ctrl (A549 epithelial cells): 7.9 |
| KMKSFAKMLMLALKKVLKVLTTALTLKAGLPS [SEQ ID NO: 43] | 0.46 ± 0.10 | 4.3 ± 0.2 | 8 | 8 | 4 | 16 | toxicity / membrane damage [1]: did induce membrane damage; MIC, P. aerug. ([2]; 24 h): 16 µg/mL; MIC, S. aureus ([2]; 24 h): 128 µg/mL |
| KNKAFAKMLMKALKKVTTAAKPLTG [ID 44] | – | – | – | – | – | – | X58467 cytochrome P450, expression Ratio ID#:ctrl (A549 epithelial cells): 34.4 |
| KNKAFAKMLMKALKKVTTAAKPLTG [SEQ ID NO: 44] | 1.49 ± 0.39 | 0.97 ± 0.03 | 64 | 8 | 64 | 128 | MIC, P. aerug. ([2]; 24 h): 128 µg/mL |
| KQKLFAKMLMSALKKKTLVTTPLAGK [ID 45] | – | – | – | – | – | – | X58467 cytochrome P450, expression Ratio ID#:ctrl (A549 epithelial cells): 3.4 |
| KQKLFAKMLMSALKKKTLVTTPLAGK [SEQ ID NO: 45] | 1.54 ± 0.35 | 0.98 ± 0.04 | 16 | 8 | 16 | 128 | MIC, P. aerug. ([2]; 24 h): 128 µg/mL |
| KRTAIKKVSRRGMSVKARR [SEQ ID NO: 37] | 1.67 ± 0.02 | 0.96 ± 0.04 | – | – | – | – | – |
| KSRIVPAIPVSLL [SEQ ID NO: 7] | 1.78 ± 0.10 | 1.01 ± 0.04 | – | – | – | – | – |
| KTKKFAKMLMMALKKVVSTAKPLAILS [ID 42] | – | – | – | – | – | – | X58467 cytochrome P450, expression Ratio ID#:ctrl (A549 epithelial cells): 4.7 |
